{"source": "patent US11952328B2", "about": "“Selective ship inhibitors for treating disease” (THE RESEARCH FOUNDATION FOR THE STATE UNIVERSITY OF NEW YORK, priority 2018, dated 2024)", "key": {"[1]": {"test_system": "CD8+ T cells", "test": "CD8 T cell activation (CD69) and degranulation (CD107a) after two-day in vivo treatment", "set-up": "species or system mice", "description": "FIGS. 3B-3E show activation of NK cells and T cells following exposure to the SHIP1 inhibitor 3AC in vivo. NK cells from two-day 3AC- or vehicle-treated mice were stimulated by incubation on uncoated plates, on plates coated with anti-NK1.1, anti-NKp46, or anti-NKG2D antibody, or on uncoated plates but in the presence of PMA and ionomycin. Representative flow plots (FIG. 3B) and box and whisker plots (FIG. 3C) show the frequency of NK cell production of IFNγ determined by intracellular flow cytometry. […] Anti-CD107a (LAMP-1) PE antibody was added for the final 5 hours of incubation. Degranulation of CD8+ T cells was determined by analysis of CD107a expression by flow cytometry. NK cells are defined as NK1.1+CD3ε− and CD8+ T cells as NK1.1-CD3ε+CD8+CD4−. Graphs are representative of at least two independent experiments with at least four 3AC- and vehicle-treated mice per group (FIGS. 3B-3C) or pooled data from two independent experiments is shown (FIGS. 3D-3F). FIG. 3C (unstim: n=4, p=0.0962, Unpaired t test with Welch's correction. NK1.1: n=4, p=0.0038, Two-tailed student's T test. NKG2D: n=4, p=0.0450, Two-tailed student's T test. NKp46: n=4, p=0.0144, Two-tailed student's T test. PMA: p=0.2945, Two-tailed student's T test). FIG. 3D (n=8, p=0.0153, Unpaired T test with Welch's correction). FIG. 3E (n=8, p=0.0009, Two-tailed student's T test) FIG. 3F (n=9, p=0.0083, Two-tailed student's T test).\nTo determine if SHIP inhibitors are also capable of activating the other major type of cytotoxic lymphocyte the responsiveness of CD8 T cells following the same, short-term, 3AC treatment was examined."}, "[2]": {"test_system": "NK cell compartment", "conditions": "uninterrupted, extended-duration treatment, six days each week; Fernandes et al. 2015; cited from earlier work"}, "[3]": {"test_system": "RMA-Rael cells", "test": "RMA-Rael viability following in vitro treatment", "type": "cell-based, mice", "conditions": "24 h, doses given as 5-20 pM, vs solvent only", "text": "FIGS. 5A-5I show the effects of SHIP1 inhibitor as a chemotherapeutic. […] FIG. 5D and FIG. 5E show the representative histograms and box-and-whisker plots of FasL expression by NK cells from C56BL/6 (p=0.0002; Unpaired t test with Welch's correction) or RAG1−/− (p<0.0001; Mann-Whitney U test) tumor challenged, SHIP inhibitor or vehicle treated hosts. […] (NK cells p=0.0192; Unpaired t test with Welch's correction. T cells p=0.0659; Mann-Whitney U test). Additionally, FIGS. 5A-5G show the analysis by flow cytometry on day 3 after hosts receive SHIP inhibitor or vehicle for two consecutive days. NK cells are defined as NK1.1+CD3ε−. The graphs are representative of at least two independent experiments with at least four SHIP inhibitor and vehicle treated mice. […] Viability is expressed as frequency at a given concentration expressed as a percentage of solvent only treated cells. The kill curve summarizes pooled data from three independent experiments using six replicate wells/concentration with mean ±SEM indicated (n=18 per group. One-way ANOVA with Dunnett's multiple comparisons. 0 pM vs. 20 pM Adjusted p value =0.0001. 0 pM vs. 15 pM Adjusted p value =0.0001. 0 pM vs. 10 pM Adjusted p value =0.0001. 0 pM vs. 7.5 pM Adjusted p value =0.0001. 0 pM vs. 5 pM Adjusted p value =0.0001). […]"}, "[4]": {"test_system": "RMA cells", "test": "Apoptosis (AnnexinV), Caspase 8 and CD95/Fas in RMA cells in culture", "type": "cell-based, mice", "text": "FIGS. 5A-5I show the effects of SHIP1 inhibitor as a chemotherapeutic. […] FIG. 5D and FIG. 5E show the representative histograms and box-and-whisker plots of FasL expression by NK cells from C56BL/6 (p=0.0002; Unpaired t test with Welch's correction) or RAG1−/− (p<0.0001; Mann-Whitney U test) tumor challenged, SHIP inhibitor or vehicle treated hosts. […] (NK cells p=0.0192; Unpaired t test with Welch's correction. T cells p=0.0659; Mann-Whitney U test). Additionally, FIGS. 5A-5G show the analysis by flow cytometry on day 3 after hosts receive SHIP inhibitor or vehicle for two consecutive days. NK cells are defined as NK1.1+CD3ε−. The graphs are representative of at least two independent experiments with at least four SHIP inhibitor and vehicle treated mice. […] Viability is expressed as frequency at a given concentration expressed as a percentage of solvent only treated cells. The kill curve summarizes pooled data from three independent experiments using six replicate wells/concentration with mean ±SEM indicated (n=18 per group. One-way ANOVA with Dunnett's multiple comparisons. 0 pM vs. 20 pM Adjusted p value =0.0001. 0 pM vs. 15 pM Adjusted p value =0.0001. 0 pM vs. 10 pM Adjusted p value =0.0001. 0 pM vs. 7.5 pM Adjusted p value =0.0001. 0 pM vs. 5 pM Adjusted p value =0.0001).\nNK cells are able to directly kill target cells through several different mechanisms including both production of perforin and granzymes and induction of apoptosis via Fas-FasL signaling (Arase, H. et al., Fas-mediated cytotoxicity by freshly isolated natural killer cells. J Exp Med. (1995); 181: 1235-1238; Zamai, L. et al., Natural killer (NK) cell-mediated cytotoxicity: differential use of TRAIL and Fas ligand by immature and mature primary human NK cells. J Exp Med. (1998); 188: 2375-2380). […] SHIP1 was recently shown to be recruited to CD95/Fas to set a threshold for induction of Caspase 8, and thereby, a threshold for induction of apoptosis (Park, M. Y. et al., Impaired T-cell survival promotes mucosal inflammatory disease in SHIP1-deficient mice. Mucosal Immunol. (2014); 7: 1429-1439). […]"}, "[5]": {"conditions": "splenic CD8+ T cells, two-day 3AC vs vehicle"}, "[6]": {"conditions": "RMA cells, culture for 12 hours"}}, "note": "“Also recorded” adds a separate entry of the source."}
{"smiles": "CC(C)CCC[C@@H](C)[C@H]1CC[C@H]2[C@@H]3CCC4C[C@H](N)CC[C@]4(C)[C@H]3CC[C@]12C", "note": "(stereo partly drawn) [Compound 3AC, 3-α-aminocholestane]", "values": [{"measurement": "percentage of activated CD8 T cells (CD69 expression)", "setting": "[1]; [5]", "result": "significantly increased"}, {"measurement": "surface expression of CD69 amongst CD8 T cells", "setting": "[1]; [5]", "result": "increased"}, {"measurement": "LAMP-1 (CD107a) expression of CD8 T cells (degranulation)", "setting": "[1]; splenic CD8 T cells, crosslinking of TcR and CD28 (anti-CD3, anti-CD28) overnight", "result": "increased frequency"}, {"measurement": "NK cell compartment function (acute rejection of MHC-I mismatched BM graft)", "setting": "[2]", "result": "disabled NK cell compartment"}, {"measurement": "RMA-Rael viability (direct killing)", "setting": "[3]", "result": "capable of directly killing RMA-Rael cells; also recorded: cytotoxic"}, {"measurement": "frequency of death receptor CD95/Fas", "setting": "[4]; 3AC-treated RMA cells", "result": "increased frequency"}, {"measurement": "activation of Caspase 8", "setting": "[4]; [6]", "result": "increased activation of Caspase 8"}, {"measurement": "induction of apoptosis (AnnexinV)", "setting": "[4]; [6]", "result": "significant induction of apoptosis"}]}
